# Test results: US9463194B2, “Methods of treating patients co-infected with HIV and tuberculosis” (priority 2014, dated 2016)
# “Also recorded” adds a separate entry of the source.
# Columns and labels:
# [1] = RFB metabolite; cited from earlier work
# [2] = Steady-state pharmacokinetic interaction study of EVG/COBI Composition plus evening COBI plus RFB QOD in healthy volunteers; type: in vivo, human
# Method: “Ctau” or “Ctrough” is a pharmacokinetic (PK) parameter that refers to the concentration of the drug at the end of the dosing interval. This parameter is obtained by direct measurement of the drug concentrations in a plasma sample collected from the study subject at the end of the dosing interval (i.e., 24 hours post-dose) using a validated high-performance liquid chromatography/tandem mass spectrometry (HPLC/MS/MS) bioanalytical assay.
# This study evaluated the steady-state pharmacokinetics and safety of the coadministered Composition and an additional dose of COBI in combination with RFB QOD.
# Lack of PK alteration bounds for 90% confidence intervals (CI) about the geometric mean ratio (GMR) (coadministration: alone) were 70-143% for EVG and RFB.
# [3] = in vivo; cited from earlier work
# [4] = tested on: wild type HIV virus; assay: In vitro assay of concentration-dependent inhibition of wild type HIV virus (IC95); type: cell-based
# From the text: “IC95” or “EC95” refers to the inhibitory concentration required to achieve 95% of the maximum desired effect, which in the case of EVG is the inhibition of the HIV virus. This term is obtained using an in vitro assay evaluating the concentration-dependent inhibition of wild type HIV virus.
# [5] = ritonavir-boosted EVG + RFB QOD; cited from earlier work
# [6] = coadministration (Composition QD + COBI 150 mg evening + RFB 150 mg QOD) : alone, healthy volunteers, n = 14, steady state
compound,measurement,setting,value
25-O-desacetylrifabutin,contribution to total antimycobacterial activity,[1],~10%
same,exposure higher versus RFB alone,"[2]; RFB metabolite, EVG QD + COBI BID + RFB QOD versus RFB alone",~12 fold
CC(C)c1nc(CN(C)C(=O)N[C@@H](CCN2CCOCC2)C(=O)N[C@H](CC[C@H](Cc2ccccc2)NC(=O)OCc2cncs2)Cc2ccccc2)cs1 [COBI],exposures upon coadministration with RFB (previous research),[3],substantially lower
same,levels lower by 24 hrs post dose when co-administered with RFB,[3],70%
"COc1cc2c(cc1Cc1cccc(Cl)c1F)c(=O)c(C(=O)O)cn2[C@H](CO)C(C)C [EVG, elvitegravir]",IC95,[4],0.045 µg/mL
same,exposures upon coadministration with RFB (previous research),[3],substantially lower
same,levels lower by 24 hrs post dose when co-administered with RFB,[3],70%
"CO[C@H]1/C=C/O[C@@]2(C)Oc3c(C)c(O)c4c(c3C2=O)C2=NC3(CCN(CC(C)C)CC3)NC2=C(NC(=O)/C(C)=C\C=C\[C@H](C)[C@H](O)[C@@H](C)[C@@H](O)[C@@H](C)[C@H](OC(C)=O)[C@@H]1C)C4=O [RFB, 1′,4-didehydro-1-deoxy-1,4-dihydro-5′-(2-methylpropyl)-1-oxorifamycin XIV]",exposures versus reference treatment (in words),"[2]; Composition QD + COBI 150 mg evening + RFB 150 mg QOD, no-effect boundary 70-143%",within the predefined no-effect boundary; also recorded: clinically equivalent exposures
same,Ctau higher versus reference treatments,[2]; EVG QD + COBI BID + RFB QOD versus reference treatment,41%
same,AUCtau % GMR (90% CI),[2]; [6],"114.44 (100.27, 130.62) %"
same,Cmax % GMR (90% CI),[2]; [6],"116.26 (101.44, 133.23) %"
same,Ctau % GMR (90% CI),[2]; [6],"140.76 (123.76, 160.09) %"
CC(C)c1nc(CN(C)C(=O)N[C@H](C(=O)N[C@@H](Cc2ccccc2)C[C@H](O)[C@H](Cc2ccccc2)NC(=O)OCc2cncs2)C(C)C)cs1 [ritonavir],"exposure when co-administered with RFB QOD (ritonavir boosting, in words)",[5],maintained through the end of the dosing interval
